pIC50: −log10 of the molar value. Bounds are passed on as bounds.

These results are taken from patent publication US11505548B2, “Heterocyclic compounds and their use for treatment of helminthic infections and diseases” (Celgene Corporation, priority 2019, dated 2022).

This assay concerns Onchocerca gutturosa Adult Male Worms. Description: Onchocerciasis in vitro screening model, worm motility score. Type of assay: cell-based. The settings on record: in vitro; Onchocerca gutturosa adult male worms; class A/B/C; read-out: O. gutturosa activity level (IC50 or MED).
A word on the pIC50: it is −log10 of the IC50, conventionally taken in molar units. Take `Cc1cccnc1Nc1nc(-c2ccc(OC3CCN(C(=O)C(C)C)CC3)cn2)ns1` [Compound 265, 2-methyl-1-(4-(6-(5-(3-methylpyridin-2-ylamino)-1,2,4-thiadiazol-3-yl)pyridin-3-yloxy)piperidin-1-yl)propan-1-one]: the pIC50 is 5.30 to 6.30. The result for `CC(=O)N1CCC(Oc2ccc(-c3nsc(Nc4ncccc4C)n3)nc2)CC1` [Compound 266, 1-(4-(6-(5-(3-methyl-pyridin-2-ylamino)-1,2,4-thiadiazol-3-yl)pyridin-3-yloxy)piperidin-1-yl)ethanone] reads 5.30 to 6.30. Consider `CC(=O)N1CCc2cc(-c3nsc(Nc4ncccc4C(F)(F)F)n3)ncc21` [Compound 267, 1-(5-(5-(3-(trifluoromethyl)pyridin-2-ylamino)-1,2,4-thiadiazol-3-yl)-2,3-dihydro-1H-pyrrolo[2,3-c]pyridin-1-yl)ethanone], for which the negative logarithm of the IC50 (pIC50) was 5.30 to 6.30. With `CC(=O)N(C)c1cc(C(F)(F)F)cnc1Nc1nc(-c2cc(C(F)(F)F)c(OC(C)C)cn2)ns1` [Compound 268, N-(2-(3-(5-isopropoxy-4-(trifluoromethyl)pyridin-2-yl)-1,2,4-thiadiazol-5-ylamino)-5-(trifluoromethyl)pyridin-3-yl)-N-methylacetamide], the negative-log IC50 (pIC50) was 5.30 to 6.30. Take `CC(=O)N(C)c1cnc(-c2nsc(Nc3ncccc3C)n2)cc1C` [Compound 270, N-methyl-N-(4-methyl-6-(5-(3-methylpyridin-2-ylamino)-1,2,4-thiadiazol-3-yl)pyridin-3-yl)acetamide]: the pIC50 is 5.30 to 6.30. With `CC(=O)N(C)c1cccnc1Nc1nc(-c2cc3c(cn2)OC(C)(C)C3)ns1` [Compound 271, N-(2-(3-(2,2-dimethyl-2,3-dihydrofuro [2,3-c]pyridin-5-yl)-1,2,4-thiadiazol-5-ylamino)pyridin-3-yl)-N-methylacetamide], the pIC50 was 5.30 to 6.30. Take `CC(=O)N(C)c1cc(C(F)(F)F)cnc1Nc1nc(-c2cc3c(cn2)OC(C)(C)C3)ns1` [Compound 272, N-(2-(3-(2,2-dimethyl-2,3-dihydrofuro [2,3-c]pyridin-5-yl)-1,2,4-thiadiazol-5-ylamino)-5-(trifluoromethyl)pyridin-3-yl)-N-methylacetamide]: the negative-log IC50 (pIC50) is 6.30 to 6.70. As for `CC(=O)N(C)c1cc(C(F)(F)F)cnc1Nc1nc(-c2cc3c(cn2)N(C(C)C)CC3)ns1` [Compound 273, N-(2-(3-(1-isopropyl-2,3-dihydro-1H-pyrrolo[2,3-c]pyridin-5-yl)-1,2,4-thiadiazol-5-ylamino)-5-(trifluoromethyl)pyridin-3-yl)-N-methylacetamide], the pIC50 is 6.30 to 6.70. Take `Cc1cnc(Nc2nc(-c3cc(OC4COC4)ccn3)ns2)c(C(F)(F)F)c1` [Compound 275, N-(5-methyl-3-(trifluoromethyl)pyridin-2-yl)-3-(4-(oxetan-3-yloxy)pyridin-2-yl)-1,2,4-thiadiazol-5-amine]: the pIC50 was 5.30 to 6.30. As for `COC(=O)c1cccnc1Nc1nc(-c2ccc(OC(C)C)cn2)ns1` [Compound 276, methyl 2-(3-(5-isopropoxy-pyridin-2-yl)-1,2,4-thiadiazol-5-ylamino) nicotinate], the figure is 5.30 to 6.30. For `Cc1cccnc1Nc1nc(-c2ccc(C(=O)N(C)C)cn2)no1` [Compound 277, N,N-dimethyl-6-(5-(3-methylpyridin-2-ylamino)-1,2,4-oxadiazol-3-yl)nicotinamide], the pIC50 was 5.30 to 6.30. In the case of `Cc1cccnc1Nc1nc(-c2ccc(C#N)cn2)ns1` [Compound 278, 6-(5-(3-methylpyridin-2-ylamino)-1,2,4-thiadiazol-3-yl)nicotinonitrile], the pIC50 is 5.30 to 6.30.

In the case of `CC(=O)N(C)c1cnc(Nc2nc(-c3ncccc3OC(C)C)ns2)c(C(F)(F)F)c1` [Compound 279, N-(6-(3-(3-isopropoxy-pyridin-2-yl)-1,2,4-thiadiazol-5-ylamino)-5-(trifluoro-methyl)pyridin-3-yl)-N-methylacetamide], the pIC50 is 5.30 to 6.30.

On to `CC(=O)N(C)c1cc(C(F)(F)F)cnc1Nc1nc(-c2cc3c(cn2)NC(=O)C3(C)C)ns1` [Compound 280, N-(2-(3-(3,3-dimethyl-2-oxo-2,3-dihydro-1H-pyrrolo[2,3-c]pyridin-5-yl)-1,2,4-thiadiazol-5-ylamino)-5-(trifluoromethyl)pyridin-3-yl)-N-methylacetamide], for which the pIC50 was 5.30 to 6.30. Consider `CC(C)Oc1cccnc1-c1nsc(Nc2ncc(C(F)(F)F)cc2C(=O)N(C)C)n1` [Compound 281, 2-(3-(3-isoprop-oxypyridin-2-yl)-1,2,4-thiadiazol-5-ylamino)-N,N-dimethyl-5-(trifluoromethyl) nicotinamide], for which the negative logarithm of the IC50 (pIC50) is 5.30 to 6.30. The result for `CC(=O)N(C)c1cnc(Nc2nc(-c3cc(OC(C)C)ccn3)ns2)c(C(F)(F)F)c1` [Compound 285, N-(6-(3-(4-isopropoxy-pyridin-2-yl)-1,2,4-thiadiazol-5-ylamino)-5-(trifluoromethyl)pyridin-3-yl)-N-methylacetamide] reads 5.30 to 6.30. Regarding `CC(C)Oc1ccc(-c2nsc(Nc3ncc(C(F)(F)F)cc3S(=O)(=O)N(C)C)n2)nc1` [Compound 286, 2-(3-(5-isopropoxy-pyridin-2-yl)-1,2,4-thiadiazol-5-ylamino)-N,N-dimethyl-5-(trifluoromethyl) pyridine-3-sulfonamide], the pIC50 is 5.30 to 6.30. For `CC(=O)N(C)c1cc(C(F)(F)F)cnc1Nc1nc(-c2cc3c(cn2)N(C)C(=O)C3(C)C)ns1` [Compound 287, N-methyl-N-(5-(trifluoromethyl)-2-(3-(1,3,3-trimethyl-2-oxo-2,3-dihydro-1H-pyrrolo[2,3-c]pyridin-5-yl)-1,2,4-thiadiazol-5-ylamino)pyridin-3-yl)acetamide], the negative logarithm of the IC50 (pIC50) is 5.30 to 6.30. Consider `CC(=O)N(C)c1cnc(Nc2nc(-c3cc(OC(C)C)ccn3)ns2)c(C)c1` [Compound 288, N-(6-(3-(4-isopropoxypyridin-2-yl)-1,2,4-thiadiazol-5-ylamino)-5-methylpyridin-3-yl)-N-methylacetamide], for which the pIC50 was 5.30 to 6.30.

`CC(=O)N(C)c1cc(C(F)(F)F)cnc1Nc1nc(-c2cc3c(cn2)N(C)C(C)(C)C3)ns1` [Compound 291, N-methyl-N-(5-(trifluoromethyl)-2-(3-(1,2,2-trimethyl-2,3-dihydro-1H-pyrrolo[2,3-c]pyridin-5-yl)-1,2,4-thiadiazol-5-ylamino)pyridin-3-yl)acetamide]: the pIC50 is greater than 6.70. `CN(C)C(=O)c1cc(C(F)(F)F)cnc1Nc1nc(-c2cc3c(cn2)N(C)C(=O)C3(C)C)ns1` [Compound 292, N,N-dimethyl-5-(trifluoromethyl)-2-(3-(1,3,3-trimethyl-2-oxo-2,3-dihydro-1H-pyrrolo[2,3-c]pyridin-5-yl)-1,2,4-thiadiazol-5-ylamino) nicotinamide]: the negative-log IC50 (pIC50) was 5.30 to 6.30. As for `CN(C)C(=O)c1cc(C(F)(F)F)cnc1Nc1nc(-c2cc3c(cn2)N(C)C(C)(C)C3)ns1` [Compound 293, N,N-dimethyl-5-(trifluoromethyl)-2-(3-(1,2,2-trimethyl-2,3-dihydro-1H-pyrrolo[2,3-c]pyridin-5-yl)-1,2,4-thiadiazol-5-ylamino) nicotinamide], the negative logarithm of the IC50 (pIC50) was greater than 6.70.

For the compound `CC(=O)N(C)c1cnc(Nc2n[nH]c(-c3cc4c(cn3)N(C(C)C)CC4)n2)c(C(F)(F)F)c1` [Compound 294, N-(6-(5-(1-isopropyl-2,3-dihydro-1H-pyrrolo[2,3-c]pyridin-5-yl)-1H-1,2,4-triazol-3-ylamino)-5-(trifluoromethyl)pyridin-3-yl)-N-methylacetamide], the pIC50 was 5.30 to 6.30.
